This is an account of results in paper PMC6874530, “Structural analysis identifies an escape route from the adverse lipogenic effects of liver X receptor ligands” (Communications Biology, 2019).

For one data set, the system named is Abca1 mRNA in intestine. Nature of the data set: intestinal Abca1 mRNA induction in C57BL/6 mice (Emax model). The settings on record: for ED50: Mus musculus. Type of data set: in vivo, mouse. How it is done: All procedures involving animals were conducted in accordance with accepted standards of good animal practice and approved by the respective local animal ethics committees (Gothenburg region Local Ethics Review Committee on Animal experiments and University of Virginia Animal Care and Use Committee). Male C57BL/6JOlaHsd mice were retrieved from Harlan Laboratories (Horst, The Netherlands) around 7 weeks of age. In the studies with BMS-852907, male 8-week C57BL/6J mice (Jackson Laboratories) were used. Mice were given ad libitum access to water and standard rodent chow during the studies.
Solid compounds were solubilized in PEG400/Ethanol/Solutol/Water solution (36.3/9.1/4.6/50%). Compounds were given daily by oral gavage, 5 ml kg^−1, at doses ranging from 0.1 to 100 μmol kg^−1 of body weight for 4 days. Animals were terminated 3 h after the last dose.
(§1) At termination, the whole-blood volume was drawn from isoflurane-anesthetized mice via an incision in the carotid artery into EDTA blood tubes (S-Monovette®, EDTA KE/1.3 mL, Sarstedt, Nümbrecht, Germany or BD Microtainers®, Benton, Dickinson and Company, Franklin Lakes, New Jersey, USA). Blood samples were placed on ice and centrifuged within an hour (15 min, 2500 × g, 4 °C or 5 min, 16000 × g, 4 °C). The plasma was then dispensed in separate tubes and kept at −80 °C for later analysis of compound concentration and TG levels. For the analysis of intestinal Abca1 transcript levels, a 3–5-mm long segment of the duodenum was excised and cleared from any gut contents. Tissues were instantly snap frozen in liquid nitrogen and stored at −80 °C.
Snap-frozen intestinal tissues were quickly disrupted in QIAzol® (Qiagen, Hilden, Germany) or PureZOL™ (Bio-Rad Laboratories, Hercules, California, USA) by using a bead tissue homogenizer. Lysates were mixed with chloroform and centrifuged at 6000 × g for 15 min at 4 °C. Total RNA was purified from the upper aqueous phase on the ABI PRISM™ 6100 Nucleic Acid PrepStation (Applied Biosystems, Foster City, USA) or by using the RNeasy kit® (QIAGEN Sciences Inc., Germantown, Maryland, USA) including on-column DNase treatment by using the respective manufacturer’s protocol and reagents. Concentration of total RNA was determined on a NanoDrop™ ND-100 Spectrophotometer (Saveen Werner, Lögstrup, Sweden). The RNA templates were transferred to cDNA by reverse transcription by using the High-Capacity cDNA Reverse Transcription Kit (Applied Biosystems, Foster City, USA) according to the manufacturer’s protocol. Mouse ATP-binding cassette subfamily A member 1 (Abca1) was analyzed by using the forward primer 5′-[…]-3′, reverse primer 5′-[…]-3′, and the dual-labeled probe 5′-6FAM-[…]-TAMRA-3′. Mouse ribosomal protein large P0 (Rplp0, 36b4) was analyzed by using the forward primer 5′-[…]-3′, reverse primer 5′-[…]-3′, and the FAM-labeled probe 5′-[…]-TAMRA-3′. In the study with BMS-852907, RT-qPCR reactions were carried out in separate triplicate wells for Abca1 and Rplp0, respectively, by using 20 ng of cDNA template, 385 nM of the above-mentioned primers, and iQ™ SYBR Green Supermix (Bio-Rad, Hercules, California, USA) on a Bio-Rad MyiQ instrument (Bio-Rad, Hercules, California, USA). In the other studies, 400 nM Abca1 forward and reverse primers, 200 nM Abca1 probe, 200 nM Rplp0 forward and reverse primers, and 100 nM Rplp0 probe were mixed with 15 ng of cDNA template and TaqMan™ Gene Expression Master Mix (Applied Biosystems, Foster City, USA). The RT-qPCR reactions were performed on a 7500 Real-time PCR system (Applied Biosystems, Foster City, USA). Cycle threshold values (Ct) were retrieved from the instrument software. Relative changes in mRNA expression were calculated by using the comparative cycle method (2^−ΔΔCt). […]

In data set [1] the test system is plasma triglycerides. As to the kind of experiment: plasma TG induction in C57BL/6 mice vs plasma compound concentration (log-linear model). The settings on record: for TG induction in plasma m (scaling factor) / TG induction in plasma C2, drug concentration corresponding to a twofold increase in TG levels: (% RSE); for TG induction in plasma Attributed class: mouse, in vivo. The format is in vivo, mouse. Here is the method: Male C57BL/6JOlaHsd mice were retrieved from Harlan Laboratories (Horst, The Netherlands) around 7 weeks of age. […] Mice were given ad libitum access to water and standard rodent chow during the studies.
Compounds were given daily by oral gavage, 5 ml kg^−1, at doses ranging from 0.1 to 100 μmol kg^−1 of body weight for 4 days. Animals were terminated 3 h after the last dose.
as §1
Plasma triglyceride levels were analyzed by using the Triglycerides/Glycerol Blanked reagent kit (Roche Diagnostics GMBH, Mannheim, Germany). Samples were measured on an ABX Pentra 400 instrument (Horiba Medical, Irvine, California, USA) or Cobas Mira plus instrument (Roche Diagnostics Corporation, Indianapolis, USA). […] Absorbance was measured by using a Tecan Infinite M200 plate reader (Tecan Austria GmbH, Salzburg, Austria).
About 25 µL of plasma was precipitated with 150 µL of cold acetonitrile containing 0.2% formic acid. […] Sample analysis was performed by using a reversed-phase high-pressure liquid chromatography system coupled to a Quattro Ultima triple-quadrupole mass spectrometer (Waters, UK). A rapid 2-min 4–90% (vol/vol) acetonitrile (containing 0.2% formic acid) gradient was used for chromatographic separation.
To rank the compounds, the drug concentration (C2) needed to generate a twofold increase in plasma TG was estimated by rearranging Eq. (2):3 C2=exp^2fold−BL−1/m^1/γ

The subject of data set [2] is plasma triglycerides. Details: method as in van der Hoorn et al. 2011. The settings on record: AZ876 high dose 20 µmol·kg−1·day−1, GW3965 at a similar dose; ref van der Hoorn et al. 2011; cited from earlier work.
Where [3] appears, read: po, read-out: Abca1 mRNA induction in intestine Attributed class.
The mark [4] stands for this setting: oral gavage daily for 4 days, C57BL/6 mice, (% RSE), read-out: Abca1 mRNA induction in intestine ED50.

Where two headings read alike, the source gives them in different places.

Regarding `CC(C)(C)N1C(=O)C(Nc2ccc(N3CCCCC3)cc2)=C(c2ccccc2)S1(=O)=O` [AZ876], in the data set with Abca1 mRNA in intestine (setting [3]), the ED50 was no more than 11.3 µmol/kg. Also, the ED50 in the data set with Abca1 mRNA in intestine (setting [4]) was 0.956 µmol/kg. In the data set on plasma triglycerides [1], the “TG induction in plasma m (scaling factor)” value is 3.44 (49); the “TG induction in plasma Attributed class” value was “Lipogenic”; the “TG induction in plasma C2, drug concentration corresponding to a twofold increase in TG levels” value is 0.269 (93) μM. Also, the “increase of plasma triglyceride levels” value in the data set with plasma triglycerides [2] is reported as 110%.
As to `O=C(O)Cc1ccc(COc2cccc(-c3c(Cc4ccccc4)cnc4c(C(F)(F)F)cccc34)c2)cc1` [WAY-254011, reference compound], the “class of intestinal Abca1 induction” value with Abca1 mRNA in intestine is “high ABCA1”. Also, the ED50 with Abca1 mRNA in intestine (setting [3]) was no more than 11.3 µmol/kg. In addition, in the data set on Abca1 mRNA in intestine (setting [4]), the ED50 was less than 30 µmol/kg. In addition, in the data set with plasma triglycerides [1], the “TG induction in plasma m (scaling factor)” value was 1.94 (4); the “TG induction in plasma Attributed class” value was “Lipogenic”; the “TG induction in plasma C2, drug concentration corresponding to a twofold increase in TG levels” value was 0.794 (8) μM.
